Measured values from patent US12351580B2, “NLRP3 modulators” (Innate Tumor Immunity, Inc., priority 2017, dated 2025).

What follows are compounds tested against T1, hNLRP3 (Homo sapiens, UniProt Q96P20) (assay: Measurement of IL-1β production in PMA-differentiated THP-1 cells (hNLRP3 agonist; ELISA, alternative and hTRF procedures)).
T1 construct: THP-1 cells were purchased from the American Type Culture Collection; host or cells: THP-1 cells, PMA-differentiated
T1 sequence (Q96P20 whole entry): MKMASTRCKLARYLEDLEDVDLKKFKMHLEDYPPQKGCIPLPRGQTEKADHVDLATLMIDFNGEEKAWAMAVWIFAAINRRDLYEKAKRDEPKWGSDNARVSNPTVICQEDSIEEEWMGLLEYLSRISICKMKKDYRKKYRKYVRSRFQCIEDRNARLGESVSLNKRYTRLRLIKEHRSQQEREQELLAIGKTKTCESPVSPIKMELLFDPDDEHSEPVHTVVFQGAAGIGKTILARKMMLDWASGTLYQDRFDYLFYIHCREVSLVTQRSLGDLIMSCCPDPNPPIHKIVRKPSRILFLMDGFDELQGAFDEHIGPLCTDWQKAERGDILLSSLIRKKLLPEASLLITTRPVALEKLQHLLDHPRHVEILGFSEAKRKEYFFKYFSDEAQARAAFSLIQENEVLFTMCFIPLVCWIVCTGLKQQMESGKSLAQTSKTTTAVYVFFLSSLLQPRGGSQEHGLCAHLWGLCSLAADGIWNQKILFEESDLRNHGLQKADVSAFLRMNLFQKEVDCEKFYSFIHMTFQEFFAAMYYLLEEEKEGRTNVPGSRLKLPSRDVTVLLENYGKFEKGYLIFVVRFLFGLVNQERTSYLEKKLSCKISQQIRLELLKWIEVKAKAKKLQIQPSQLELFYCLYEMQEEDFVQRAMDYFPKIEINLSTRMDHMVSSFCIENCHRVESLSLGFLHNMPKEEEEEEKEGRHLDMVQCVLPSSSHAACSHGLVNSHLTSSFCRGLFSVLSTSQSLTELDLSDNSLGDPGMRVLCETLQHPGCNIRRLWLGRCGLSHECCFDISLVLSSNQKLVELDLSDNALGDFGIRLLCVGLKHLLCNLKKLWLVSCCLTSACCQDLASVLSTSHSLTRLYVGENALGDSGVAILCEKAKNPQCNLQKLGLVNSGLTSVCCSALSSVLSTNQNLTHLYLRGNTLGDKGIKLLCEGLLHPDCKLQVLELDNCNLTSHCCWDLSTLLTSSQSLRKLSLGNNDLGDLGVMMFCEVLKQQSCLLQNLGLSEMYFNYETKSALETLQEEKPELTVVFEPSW
Format: cell-based
How it was run: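 PMA-differentiated THP-1 cells (PMA […] 24 h, 20 μg/ml overnight, or 50 ng/ml overnight, by procedure) replated in RPMI with 2% FBS and exposed to compound (e.g. 100–0.1 μM, 1% DMSO; hTRF format top 10 μM) for 4 h, 2 h, or 2 h respectively. Supernatant IL-1β measured by ELISA, or by hTRF with antibodies diluted 1:40.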
Work on `CCC(=O)NCc1nc2c(N)nc3cc(-c4cc[nH]n4)ccc3c2[nH]1` [Compound 111] yielded an EC50 of 720 nM. Work on `CCN(Cc1nc2c(N)nc3cc(-c4cc[nH]n4)ccc3c2[nH]1)C(=O)c1nccs1` [Compound 114] yielded an EC50 of 1040 nM. `CN(Cc1nc2c(N)nc3cc(-c4cc[nH]n4)ccc3c2[nH]1)S(C)(=O)=O` [Compound 115] showed an EC50 of 900 nM. Compound `CC(c1nc2c(N)nc3cc(-n4cccn4)ccc3c2[nH]1)N1CCCC1=O` (stereo not drawn) [Compound 117] has an EC50 of 1260 nM. `CCN(Cc1nc2c(N)nc3cc(-c4cc[nH]n4)ccc3c2[nH]1)C(=O)C1CC1` [Compound 118] showed an EC50 of 1360 nM. `Nc1nc2cc(-c3cccs3)ccc2c2[nH]c(CN3CCCC3=O)nc12` [Compound 309, 1-[(4-amino-7-thiophen-2-yl-1H-imidazo[4,5-c]quinolin-2-yl)methyl]pyrrolidin-2-one] showed an EC50 of 240 nM. `N#Cc1ccccc1-c1ccc2c(c1)nc(N)c1nc(CN3CCCC3=O)[nH]c12` [Compound 315, 2-[4-amino-2-[(2-oxopyrrolidin-l-yl)methyl]-1H-imidazo[4,5-c]quinolin-7-yl]benzonitrile] gave an EC50 of 1180 nM. Work on `Nc1nc2cc(Br)ccc2c2[nH]c(CN3CC(c4ccccc4)CC3=O)nc12` (stereo not drawn) [Compound 316, 1-[(4-amino-7-bromo-1H-imidazo[4,5-c]quinolin-2-yl)methyl]-4-phenylpyrrolidin-2-one] yielded an EC50 of 1100 nM. For `COc1ncccc1-c1ccc2c(c1)nc(N)c1nc(CN3CCCC3=O)[nH]c12` [Compound 319, 1-[[4-amino-7-(2-methoxypyridin-3-yl)-1H-imidazo[4,5-c]quinolin-2-yl]methyl]pyrrolidin-2-one], the EC50 was 6200 nM. In the case of `Nc1nc2cc(-c3cccnc3Cl)ccc2c2[nH]c(CN3CCCC3=O)nc12` [Compound 320, 1-[[4-amino-7-(2-chloropyridin-3-yl)-1H-imidazo[4,5-c]quinolin-2-yl]methyl]pyrrolidin-2-one], the EC50 is reported as 1500 nM. Compound `Nc1nc2cc(-c3cnccc3Cl)ccc2c2[nH]c(CN3CCCC3=O)nc12` [Compound 321, 1-[[4-amino-7-(4-chloropyridin-3-yl)-1H-imidazo[4,5-c]quinolin-2-yl]methyl]pyrrolidin-2-one] has an EC50 of 4500 nM. For `Nc1nc2cc(-c3ccc(C(F)(F)F)nc3)ccc2c2[nH]c(CN3CCCC3=O)nc12` [Compound 324, 1-[[4-amino-746-(trifluoromethyppyridin-3-yl]-1H-imidazo[4,5-c]quinolin-2-yl]methyl]pyrrolidin-2-one], the EC50 was 6700 nM. Work on `N#Cc1cncc(-c2ccc3c(c2)nc(N)c2nc(CN4CCCC4=O)[nH]c23)c1` [Compound 326, 5-[4-amino-2-[(2-oxopyrrolidin-l-yl)methyl]-1H-imidazo[4,5-c]quinolin-7-yl]pyridine-3-carbonitrile] yielded an EC50 of 2700 nM. With `N#Cc1ccc(-c2ccc3c(c2)nc(N)c2nc(CN4CCCC4=O)[nH]c23)cn1` [Compound 327, 5-[4-amino-2-[(2-oxopyrrolidin-l-yl)methyl]-1H-imidazo[4,5-c]quinolin-7-yl]pyridine-2-carbonitrile] the EC50 was 13000 nM. `Nc1nc2cc(-c3cncc(Cl)c3)ccc2c2[nH]c(CN3CCCC3=O)nc12` [Compound 328, 1-[[4-amino-7-(5-chloropyridin-3-yl)-1H-imidazo[4,5-c]quinolin-2-yl]methyl]pyrrolidin-2-one] gave an EC50 of 4100 nM. In the case of `Nc1nc2cc(-c3ccc(F)nc3)ccc2c2[nH]c(CN3CCCC3=O)nc12` [Compound 330, 1-[[4-amino-7-(6-fluoropyridin-3-yl)-1H-imidazo[4,5-c]quinolin-2-yl]methyl]pyrrolidin-2-one], the EC50 is reported as 1600 nM. `Nc1nc2cc(-c3cncc(F)c3)ccc2c2[nH]c(CN3CCCC3=O)nc12` [Compound 331, 1-[[4-amino-7-(5-fluoropyridin-3-yl)-1H-imidazo[4,5-c]quinolin-2-yl]methyl]pyrrolidin-2-one] was tested, and the EC50 was 3200 nM. With `Nc1nc2cc(C3CCCCCC3)ccc2c2[nH]c(CN3CCCC3=O)nc12` [Compound 332, 1-[(4-amino-7-cycloheptyl-1H-imidazo[4,5-c]quinolin-2-yl)methyl]pyrrolidin-2-one] the EC50 was 3300 nM. Work on `Nc1nc2cc(-c3cccnc3)ccc2c2[nH]c(CN3CC(c4ccccc4)CC3=O)nc12` (stereo not drawn) [Compound 333, 1-[(4-amino-7-pyridin-3-yl-1H-imidazo[4,5-c]quinolin-2-yl)methyl]-4-phenylpyrrolidin-2-one] yielded an EC50 of 1900 nM. Work on `COC(=O)CCCn1c(CN2CCCC2=O)nc2c(N)nc3ccccc3c21` [Compound 335] yielded an EC50 of 6500 nM. In the case of `CN(C)C(=O)CCCn1c(CN2CCCC2=O)nc2c(N)nc3cc(Cl)ccc3c21` [Compound 337], the EC50 is reported as 80000 nM. For `CN(C)C(=O)CCCn1c(CN2CCCC2=O)nc2c(N)nc3cc(-c4cccnc4)ccc3c21` [Compound 340], the EC50 was 50000 nM. For `COC(=O)CCCn1c(CN2CCCC2=O)nc2c(N)nc3cc(Br)ccc3c21` [Compound 341], the EC50 was 2100 nM. `COC(=O)CCCn1c(CN2CCCC2=O)nc2c(N)nc3cc(-c4cccnc4)ccc3c21` [Compound 342] gave an EC50 of 3300 nM. Work on `Nc1nc2ccccc2c2[nH]c(CN3CCCCC3=O)nc12` [Compound 346] yielded an EC50 of 17300 nM. `COC(=O)CCCn1c(CN2CCCCC2=O)nc2c(N)nc3ccccc3c21` [Compound 347] showed an EC50 of 41000 nM. In the case of `CN(C)Cc1nc2c(N)nc3cc(-c4cc[nH]n4)ccc3c2[nH]1` [Compound 348], the EC50 is reported as 890 nM. Work on `CCN(C)Cc1nc2c(N)nc3cc(-c4cc[nH]n4)ccc3c2[nH]1` [Compound 349] yielded an EC50 of 600 nM. Compound `Nc1nc2cc(-n3cccn3)ccc2c2[nH]c(CN3C[C@@H](c4ccccc4)CC3=O)nc12` [Compound 357] has an EC50 of 640 nM. With `Nc1nc2cc(-n3cccn3)ccc2c2[nH]c(CN3C[C@H](c4ccccc4)CC3=O)nc12` [Compound 358] the EC50 was 630 nM. `Nc1nc2cc(-c3cc[nH]n3)ccc2c2[nH]c(CN3C(=O)OCC3c3ccccc3)nc12` (stereo not drawn) [Compound 363] gave an EC50 of 5800 nM. Compound `Nc1nc2cc(-c3cc[nH]n3)ccc2c2[nH]c(CN3CCOC3=O)nc12` [Compound 365] has an EC50 of 5000 nM. `CN1CCN(Cc2nc3c(N)nc4cc(-c5cc[nH]n5)ccc4c3[nH]2)C1=O` [Compound 368] gave an EC50 of 3900 nM. In the case of `CN(Cc1nc2c(N)nc3cc(-c4cc[nH]n4)ccc3c2[nH]1)C(=O)CO` [Compound 370], the EC50 is reported as 4800 nM. With `CN(Cc1nc2c(N)nc3cc(-c4cc[nH]n4)ccc3c2[nH]1)C(=O)CN` [Compound 372] the EC50 was 8300 nM. With `CN(C)C(=O)N(C)Cc1nc2c(N)nc3cc(-c4cc[nH]n4)ccc3c2[nH]1` [Compound 375] the EC50 was 2400 nM. `CN(Cc1nc2c(N)nc3cc(-c4cc[nH]n4)ccc3c2[nH]1)C(=O)c1ccccc1` [Compound 376] showed an EC50 of 3600 nM. Compound `CN(Cc1nc2c(N)nc3cc(-c4cc[nH]n4)ccc3c2[nH]1)C(=O)c1nccs1` [Compound 377] has an EC50 of 4300 nM. `CCN(C=O)Cc1nc2c(N)nc3cc(-c4cc[nH]n4)ccc3c2[nH]1` [Compound 379] gave an EC50 of 2000 nM. `CCN(Cc1nc2c(N)nc3cc(-c4cc[nH]n4)ccc3c2[nH]1)C(=O)CN(C)C` [Compound 383] was tested, and the EC50 was 3600 nM. `CCN(Cc1nc2c(N)nc3cc(-c4ccn(C)n4)ccc3c2[nH]1)C(=O)OC(C)(C)C` [Compound 393] showed an EC50 of 7110 nM. Compound `CCN(Cc1nc2c(N)nc3cc(-c4ccsc4)ccc3c2[nH]1)C(=O)OC(C)(C)C` [Compound 397] has an EC50 of 1050 nM. `CCNCc1nc2c(N)nc3cc(-n4cccn4)ccc3c2[nH]1` [Compound 398] was tested, and the EC50 was 1220 nM. In the case of `CCNCc1nc2c(N)nc3cc(-c4cccs4)ccc3c2[nH]1` [Compound 399], the EC50 is reported as 1060 nM. `CCNCc1nc2c(N)nc3cc(-c4ccsc4)ccc3c2[nH]1` [Compound 400] showed an EC50 of 1790 nM. Compound `CNCc1nc2c(N)nc3cc(-c4cc[nH]n4)ccc3c2[nH]1` [Compound 401] has an EC50 of 1230 nM. In the case of `CNCc1nc2c(N)nc3cc(-n4cccn4)ccc3c2[nH]1` [Compound 402], the EC50 is reported as 1310 nM. `COc1ccc(Cn2c(CN3CCN(C)C3=O)nc3c(N)nc4cc(-c5cc[nH]n5)ccc4c32)cc1` [Compound 403] gave an EC50 of 3660 nM. For `COc1ccc(Cn2c(CN3C(=O)OCC3COCc3ccccc3)nc3c(N)nc4cc(-c5cc[nH]n5)ccc4c32)cc1` (stereo not drawn) [Compound 404], the EC50 was 2500 nM. `COC(=O)N(C)Cc1nc2c(N)nc3cc(-c4cc[nH]n4)ccc3c2[nH]1` [Compound 405] showed an EC50 of 2190 nM. With `CCN(Cc1nc2c(N)nc3cc(-c4cc[nH]n4)ccc3c2[nH]1)C(=O)OC` [Compound 406] the EC50 was 1370 nM. For `Nc1nc2cc(-c3cc[nH]n3)ccc2c2[nH]c(CN3C[C@@H](c4ccccc4)CC3=O)nc12` [Compound 407], the EC50 was 6550 nM. In the case of `Nc1nc2cc(-c3cc[nH]n3)ccc2c2[nH]c(CN3C[C@H](c4ccccc4)CC3=O)nc12` [Compound 408], the EC50 is reported as 5230 nM. `COc1ccc(Cn2c(CN3C(=O)OCC3c3ccccc3)nc3c(N)nc4cc(-c5cc[nH]n5)ccc4c32)cc1` (stereo not drawn) [Compound 409] was tested, and the EC50 was 2360 nM. Work on `COc1ccc(Cn2c(Cn3cnccc3=O)nc3c(N)nc4cc(-c5cc[nH]n5)ccc4c32)cc1` [Compound 414] yielded an EC50 of 3830 nM. In the case of `CCN(Cc1nc2c(N)nc3cc(-c4cc[nH]n4)ccc3c2[nH]1)C(=O)C1COC1` [Compound 417], the EC50 is reported as 7400 nM. `CCN(Cc1nc2c(N)nc3cc(-c4ccsc4)ccc3c2[nH]1)C(C)=O` [Compound 419, N-((4-Amino-7-(thiophen-3-yl)-1H-imidazo[4,5-c]quinolin-2-yl)methyl)-N-ethylacetamide] showed an EC50 of 910 nM. `CCN(Cc1nc2c(N)nc3cc(-c4cc[nH]n4)ccc3c2n1C)C(=O)OC(C)(C)C` [Compound 420] showed an EC50 of 190 nM. In the case of `CCN(Cc1nc2c(N)nc3cc(-c4ccc(C)cc4)ccc3c2[nH]1)C(C)=O` [Compound 422], the EC50 is reported as 280 nM. `Nc1nc2cc(-n3cccn3)ccc2c2[nH]c(CN3CCCCC3=O)nc12` [Compound 423] showed an EC50 of 620 nM. `CCN(Cc1nc2c(N)nc3cc(-c4cncc(F)c4)ccc3c2[nH]1)C(C)=O` [Compound 427] gave an EC50 of 5000 nM. `CCN(Cc1nc2c(N)nc3cc(Br)ccc3c2n1CC(C)C)C(C)=O` [Compound 430] showed an EC50 of 7450 nM. `CCN(Cc1nc2c(N)nc3cc(Br)ccc3c2n1CCCOC)C(C)=O` [Compound 431] showed an EC50 of 8670 nM.
